{
  "source": "patent US20250235455A1",
  "about": "“AQUEOUS TICAGRELOR SOLUTIONS, METHOD OF MANUFACTURING AND USES” (HYLORIS DEVELOPMENTS SA, priority 2022, published 2025)",
  "key": {"[1]": {"test": "Dilution of a concentrated ticagrelor vial", "type": "physicochemical", "source_text": "However, this was not possible with a 0.9 w/v % NaCl solution as diluent for the concentrated ticagrelor solution."}, "[2]": {"test": "Impact of packaging on stability, HPβCD 32.5% w/w, 5 mM pH 7.5 phosphate buffer, 40° C./75% RH", "type": "physicochemical", "conditions": "for Assay: in %", "description": "To study the potential impact of the packaging material on the stability of the ticagrelor-cyclodextrin inclusion complex a composition with 32.5% w/w HPβCD was prepared with procedures and precaution's similar to previous trials, samples were stored in transparent clear glass vials and amber colored glass vials at a temperature of 40° C./75% RH."}, "[3]": {"conditions": "Amber colour USP Type I Glass vials, 1 M"}, "[4]": {"conditions": "Amber colour USP Type I Glass vials, 2 M"}, "[5]": {"conditions": "Amber colour USP Type I Glass vials, 3 M"}, "[6]": {"conditions": "Amber colour USP Type I Glass vials, T0"}, "[7]": {"conditions": "Clear USP Type I Glass vials, 1 M"}, "[8]": {"conditions": "Clear USP Type I Glass vials, 2 M"}, "[9]": {"conditions": "Clear USP Type I Glass vials, 3 M"}, "[10]": {"conditions": "Clear USP Type I Glass vials, T0"}},
  "data": [
    {"smiles": "CCCSc1nc(N[C@@H]2C[C@H]2c2ccc(F)c(F)c2)c2nnn([C@@H]3C[C@H](OCCO)[C@@H](O)[C@H]3O)c2n1", "note": "[Ticagrelor, (1S,2S,3R,5S)-3-{7-[(1R,2S)-2-(3,4-difluorophenyl)cyclopropylamino]5-(propylthio)-3H-(1,2,3)triazolo (4,5-D)pyrimidin-3-yl}-5-(2 hydroxyethoxy)cyclopentane-1,2-diol]", "values": [
      {"measurement": "Clear solution on dilution", "setting": "[1]; 0.9 w/v % NaCl solution as diluent", "value": "not possible"},
      {"measurement": "Appearance after dilution", "setting": "[1]; 1 vial of 8 ml, 65 mg ticagrelor, about 3 g HPβCD, diluted with 25 ml 5 w/v % dextrose", "value": "clear solution"},
      {"measurement": "Acetal impurity", "setting": "[2]; [3]", "value": 0.05, "unit": "%"},
      {"measurement": "Amine impurity", "setting": "[2]; [3]", "value": 0.04, "unit": "%"},
      {"measurement": "Description", "setting": "[2]; [3]", "value": "clear"},
      {"measurement": "Regiomer", "setting": "[2]; [3]", "value": 0.01, "unit": "%"},
      {"measurement": "Sum Impurities >0.05", "setting": "[2]; [3]", "value": 0.05, "unit": "%"},
      {"measurement": "Total impurity", "setting": "[2]; [3]", "value": 0.22, "unit": "%"},
      {"measurement": "Triol impurity", "setting": "[2]; [3]", "value": 0.02, "unit": "%"},
      {"measurement": "pH", "setting": "[2]; [3]", "value": 7.70},
      {"measurement": "Assay", "setting": "[2]; [3]", "value": 100.24},
      {"measurement": "Acetal impurity", "setting": "[2]; [4]", "value": 0.04, "unit": "%"},
      {"measurement": "Amine impurity", "setting": "[2]; [4]", "value": 0.04, "unit": "%"},
      {"measurement": "Description", "setting": "[2]; [4]", "value": "clear"},
      {"measurement": "Regiomer", "setting": "[2]; [4]", "value": 0.02, "unit": "%"},
      {"measurement": "Sum Impurities >0.05", "setting": "[2]; [4]", "value": 0.00, "unit": "%"},
      {"measurement": "Total impurity", "setting": "[2]; [4]", "value": 0.28, "unit": "%"},
      {"measurement": "Triol impurity", "setting": "[2]; [4]", "value": 0.04, "unit": "%"},
      {"measurement": "pH", "setting": "[2]; [4]", "value": 7.69},
      {"measurement": "Assay", "setting": "[2]; [4]", "value": 99.89},
      {"measurement": "Acetal impurity", "setting": "[2]; [5]", "value": 0.05, "unit": "%"},
      {"measurement": "Amine impurity", "setting": "[2]; [5]", "value": 0.06, "unit": "%"},
      {"measurement": "Description", "setting": "[2]; [5]", "value": "clear"},
      {"measurement": "Regiomer", "setting": "[2]; [5]", "value": 0.04, "unit": "%"},
      {"measurement": "Sum Impurities >0.05", "setting": "[2]; [5]", "value": 0.16, "unit": "%"},
      {"measurement": "Total impurity", "setting": "[2]; [5]", "value": 0.33, "unit": "%"},
      {"measurement": "Triol impurity", "setting": "[2]; [5]", "value": 0.05, "unit": "%"},
      {"measurement": "pH", "setting": "[2]; [5]", "value": 7.66},
      {"measurement": "Assay", "setting": "[2]; [5]", "value": 98.93},
      {"measurement": "Acetal impurity", "setting": "[2]; [6]", "value": 0.05, "unit": "%"},
      {"measurement": "Amine impurity", "setting": "[2]; [6]", "value": 0.04, "unit": "%"},
      {"measurement": "Description", "setting": "[2]; [6]", "value": "clear"},
      {"measurement": "Regiomer", "setting": "[2]; [6]", "value": 0.00, "unit": "%"},
      {"measurement": "Sum Impurities >0.05", "setting": "[2]; [6]", "value": 0.18, "unit": "%"},
      {"measurement": "Total impurity", "setting": "[2]; [6]", "value": 0.40, "unit": "%"},
      {"measurement": "Triol impurity", "setting": "[2]; [6]", "value": 0.04, "unit": "%"},
      {"measurement": "pH", "setting": "[2]; [6]", "value": 7.66},
      {"measurement": "Assay", "setting": "[2]; [6]", "value": 98.34},
      {"measurement": "Acetal impurity", "setting": "[2]; [7]", "value": 0.04, "unit": "%"},
      {"measurement": "Amine impurity", "setting": "[2]; [7]", "value": 0.04, "unit": "%"},
      {"measurement": "Description", "setting": "[2]; [7]", "value": "clear"},
      {"measurement": "Regiomer", "setting": "[2]; [7]", "value": 0.01, "unit": "%"},
      {"measurement": "Sum Impurities >0.05", "setting": "[2]; [7]", "value": 0.00, "unit": "%"},
      {"measurement": "Total impurity", "setting": "[2]; [7]", "value": 0.22, "unit": "%"},
      {"measurement": "Triol impurity", "setting": "[2]; [7]", "value": 0.03, "unit": "%"},
      {"measurement": "pH", "setting": "[2]; [7]", "value": 7.65},
      {"measurement": "Assay", "setting": "[2]; [7]", "value": 101.71},
      {"measurement": "Acetal impurity", "setting": "[2]; [8]", "value": 0.04, "unit": "%"},
      {"measurement": "Amine impurity", "setting": "[2]; [8]", "value": 0.04, "unit": "%"},
      {"measurement": "Description", "setting": "[2]; [8]", "value": "clear"},
      {"measurement": "Regiomer", "setting": "[2]; [8]", "value": 0.02, "unit": "%"},
      {"measurement": "Sum Impurities >0.05", "setting": "[2]; [8]", "value": 0.05, "unit": "%"},
      {"measurement": "Total impurity", "setting": "[2]; [8]", "value": 0.28, "unit": "%"},
      {"measurement": "Triol impurity", "setting": "[2]; [8]", "value": 0.05, "unit": "%"},
      {"measurement": "pH", "setting": "[2]; [8]", "value": 7.63},
      {"measurement": "Assay", "setting": "[2]; [8]", "value": 99.69},
      {"measurement": "Acetal impurity", "setting": "[2]; [9]", "value": 0.05, "unit": "%"},
      {"measurement": "Amine impurity", "setting": "[2]; [9]", "value": 0.06, "unit": "%"},
      {"measurement": "Description", "setting": "[2]; [9]", "value": "clear"},
      {"measurement": "Regiomer", "setting": "[2]; [9]", "value": 0.04, "unit": "%"},
      {"measurement": "Sum Impurities >0.05", "setting": "[2]; [9]", "value": 0.16, "unit": "%"},
      {"measurement": "Total impurity", "setting": "[2]; [9]", "value": 0.33, "unit": "%"},
      {"measurement": "Triol impurity", "setting": "[2]; [9]", "value": 0.05, "unit": "%"},
      {"measurement": "pH", "setting": "[2]; [9]", "value": 7.58},
      {"measurement": "Assay", "setting": "[2]; [9]", "value": 98.25},
      {"measurement": "Acetal impurity", "setting": "[2]; [10]", "value": 0.05, "unit": "%"},
      {"measurement": "Amine impurity", "setting": "[2]; [10]", "value": 0.04, "unit": "%"},
      {"measurement": "Description", "setting": "[2]; [10]", "value": "clear"},
      {"measurement": "Regiomer", "setting": "[2]; [10]", "value": 0.00, "unit": "%"},
      {"measurement": "Sum Impurities >0.05", "setting": "[2]; [10]", "value": 0.22, "unit": "%"},
      {"measurement": "Total impurity", "setting": "[2]; [10]", "value": 0.40, "unit": "%"},
      {"measurement": "Triol impurity", "setting": "[2]; [10]", "value": 0.05, "unit": "%"},
      {"measurement": "pH", "setting": "[2]; [10]", "value": 7.65},
      {"measurement": "Assay", "setting": "[2]; [10]", "value": 98.34}
    ]}
  ]
}
